Reference: the supplement of paper PMC10307832

How the values were obtained:
Experiment in all cases: relative viability (nuclei count vs DMSO), 5 days (fraction); higher = more cells survive
XMD8-85 + Alpelisib = compound: CN1CCN(CC1)C2=CC(=C(C=C2)NC3=NC=C4C(=N3)N(C5=CC=CC=C5C(=O)N4C)C)OC [XMD8-85] + Cc1nc(NC(=O)N2CCC[C@H]2C(N)=O)sc1-c1ccnc(C(C)(C)C(F)(F)F)c1 [Alpelisib] (partner 2 µM)
Procedure, shortened: (§1)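 Lung cancer cell lines were pin-tool dosed in 1536-well plates on the day after seeding, with either a lone drug or a fixed anchor-drug dose plus five library-drug doses (not always all listed) in √10 steps. Nuclei were counted on 4× images after 5 days. Relative viability is the ratio of treated-well to vehicle-well nuclei counts, with each value a median of duplicate plates.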

4EGI-1 + Linsitinib = compound: O=C(O)C(Cc1ccccc1[N+](=O)[O-])=NNc1nc(-c2ccc(Cl)c(Cl)c2)cs1 (mixture of isomers) [4EGI-1] + C[C@]1(O)C[C@@H](c2nc(-c3ccc4ccc(-c5ccccc5)nc4c3)c3c(N)nccn32)C1 [Linsitinib] (partner 1 µM)
Procedure, shortened: as §1

4EGI-1 + Bortezomib = compound: O=C(O)C(Cc1ccccc1[N+](=O)[O-])=NNc1nc(-c2ccc(Cl)c(Cl)c2)cs1 (mixture of isomers) [4EGI-1] + CC(C)C[C@H](NC(=O)[C@H](Cc1ccccc1)NC(=O)c1cnccn1)B(O)O [Bortezomib] (partner 0.002 µM)
Procedure, shortened: as §1

XMD8-85 + Olaparib = compound: CN1CCN(CC1)C2=CC(=C(C=C2)NC3=NC=C4C(=N3)N(C5=CC=CC=C5C(=O)N4C)C)OC [XMD8-85] + O=C(c1cc(Cc2n[nH]c(=O)c3ccccc23)ccc1F)N1CCN(C(=O)C2CC2)CC1 [Olaparib] (partner 8 µM)
Procedure, shortened: as §1

| Cell Line | relative viability (XMD8-85 + Alpelisib; first compound 0.08 µM) | relative viability (XMD8-85 + Alpelisib; first compound 0.253 µM) | relative viability (XMD8-85 + Alpelisib; first compound 0.8 µM) | relative viability (XMD8-85 + Alpelisib; first compound 2.53 µM) | relative viability (XMD8-85 + Alpelisib; first compound 8 µM) | relative viability (4EGI-1 + Linsitinib; first compound 0.5 µM) | relative viability (4EGI-1 + Linsitinib; first compound 1.581 µM) | relative viability (4EGI-1 + Linsitinib; first compound 5 µM) | relative viability (4EGI-1 + Linsitinib; first compound 15.81 µM) | relative viability (4EGI-1 + Linsitinib; first compound 50 µM) | relative viability (4EGI-1 + Bortezomib; first compound 0.5 µM) | relative viability (4EGI-1 + Bortezomib; first compound 1.581 µM) | relative viability (4EGI-1 + Bortezomib; first compound 5 µM) | relative viability (4EGI-1 + Bortezomib; first compound 15.81 µM) | relative viability (4EGI-1 + Bortezomib; first compound 50 µM) | relative viability (XMD8-85 + Olaparib; first compound 0.08 µM) | relative viability (XMD8-85 + Olaparib; first compound 0.253 µM) | relative viability (XMD8-85 + Olaparib; first compound 0.8 µM) | relative viability (XMD8-85 + Olaparib; first compound 2.53 µM) | relative viability (XMD8-85 + Olaparib; first compound 8 µM) |
| --- | --- | --- | --- | --- | --- | --- | --- | --- | --- | --- | --- | --- | --- | --- | --- | --- | --- | --- | --- | --- |
| NCI-H647 | 0.837 | 1.18 | 1.22 | 1.35 | 0.734 | 1.17 | 1.12 | 1.22 | 1.07 | 0.202 | 1.08 | 1.08 | 1.13 | 0.533 | 0.748 | 0.573 | 0.378 | 0.605 | 0.408 | 0.118 |
| NCI-H1651 | 0.948 | 0.951 | 1.04 | 0.954 | 0.548 | 1.2 | 0.805 | 0.982 | 0.808 | 0.249 | 0.951 | 0.837 | 0.934 | 0.896 | 0.772 | 0.166 | 0.19 | 0.181 | 0.172 | 0.16 |
| NCI-H322M | 0.77 | – | 0.819 | 0.784 | 0.782 | 0.885 | 0.929 | 0.947 | 0.798 | 0.891 | 1.18 | 1.21 | 1.18 | 0.991 | 1.09 | 0.912 | 0.795 | 0.899 | 0.71 | 0.647 |
| LU99A | 0.383 | 0.531 | 0.544 | 0.61 | 0.431 | 0.593 | – | 0.651 | 0.524 | 0.401 | 1.28 | – | 1.06 | 0.873 | 0.191 | 0.247 | 0.154 | 0.238 | 0.242 | 0.218 |
| PC-14 | 0.784 | 0.882 | 0.762 | 0.993 | 0.655 | 1.01 | 0.741 | 0.983 | – | 0.94 | 1.06 | – | 0.839 | – | 0.859 | 0.253 | 0.213 | 0.229 | 0.237 | 0.14 |
| NCI-H2347 | 1.03 | 1.06 | 1.03 | 1 | 0.801 | 1.08 | 0.805 | 0.96 | 0.944 | 0.87 | 1.06 | 0.835 | 0.992 | 1.08 | 0.886 | 0.55 | 0.598 | 0.617 | 0.619 | 0.559 |
| SK-LU-1 | 0.924 | 1.07 | 1.08 | 1.01 | 0.855 | 1.31 | 1.35 | 1.46 | 1.14 | 0.283 | 1.18 | – | 1.36 | 1.53 | 0.913 | 0.482 | 0.509 | – | 0.417 | 0.391 |
| NCI-H650 | 1.09 | 0.928 | 1.17 | 0.979 | 0.592 | 0.996 | – | 1.24 | 0.915 | 0.732 | 0.905 | – | 0.753 | 0.899 | 0.499 | 0.403 | 0.395 | 0.375 | 0.387 | 0.279 |
| NCI-H1437 | 0.914 | 0.992 | 1.07 | 0.753 | 0.515 | 1.16 | 1 | 0.919 | 0.241 | 0.152 | 0.604 | 0.632 | 0.442 | 0.187 | 0.119 | 0.611 | 0.62 | 0.657 | 0.611 | 0.439 |
| NCI-H596 | – | 0.558 | 0.511 | 0.411 | 0.403 | 1.06 | 0.818 | 1.09 | 1.02 | 0.815 | 1 | 0.932 | 1.05 | 0.986 | 0.789 | 0.696 | 0.602 | 0.702 | 0.49 | 0.467 |
| NCI-H661 | – | 0.596 | 0.551 | 0.819 | 0.552 | 0.723 | 0.502 | 0.624 | 0.394 | 0.309 | 1.13 | 0.752 | 0.877 | 0.55 | 0.464 | 0.798 | 0.795 | 0.768 | 0.854 | 0.525 |
| PC-3 [JPC-3] | 1.02 | 1.05 | 1.06 | 1.01 | 1.01 | 0.96 | 0.862 | 0.96 | – | 0.889 | 0.787 | 0.81 | 0.812 | – | 0.645 | 1.11 | 1.22 | 1.25 | 1.16 | 0.978 |
| RERF-LC-KJ | 0.763 | 0.675 | 0.957 | 0.915 | 0.677 | 0.966 | 0.706 | 0.868 | 0.815 | 0.843 | 1.09 | – | 1.07 | 0.847 | 0.931 | 1.05 | 0.927 | 0.929 | 0.872 | 0.769 |
| NCI-H1993 | 0.707 | – | 0.78 | 0.561 | 0.656 | 0.754 | 0.757 | 0.737 | 0.699 | 0.706 | 1.19 | 0.899 | 0.988 | 0.689 | 0.516 | – | 0.942 | 1 | 1.07 | 0.792 |
| A-427 | 1.09 | 1.13 | 1.1 | 1.11 | 1 | 1.09 | 0.93 | 1.03 | 1.07 | 0.618 | 0.984 | 0.795 | 0.911 | 0.832 | 0.625 | 0.751 | 0.781 | 0.864 | 0.785 | 0.57 |
| ABC-1 | 1.03 | 1.15 | 1.37 | 1.01 | – | 0.977 | 0.863 | 0.806 | 0.68 | 0.419 | 0.344 | 0.291 | 0.319 | 0.285 | 0.214 | 0.919 | 0.864 | 0.781 | 0.764 | 0.795 |
| HCC-78 | 0.384 | 0.405 | 0.39 | 0.3 | 0.285 | 0.612 | 0.373 | 0.453 | 0.484 | 0.479 | 0.618 | 0.466 | 0.513 | 0.432 | 0.399 | 0.916 | 0.843 | 0.99 | 0.814 | 0.775 |
